Laboratory results as given in ChEMBL document CHEMBL1201862, “PubChem BioAssay data set” (2004).
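Where inhibition never reached the appropriate level, the endpoint shown equals the highest concentration tested. Otherwise, values were interpolated linearly from a five-concentration, 48-hour dose response in 96-well plates. GI50: concentration for 50% inhibition of growth.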 Active and inactive are the calls of the source. No stated cut-off is given here; in the data, active = GI50 up to about 1.1 µM and inactive = higher.

Key:
Test in all cases: NCI anticancer screen, dose series, 48 h
[1] = tested on: NCI-H23
[2] = tested on: NCI-H460
[3] = tested on: TK-10
[4] = tested on: DMS-114
[5] = tested on: UACC-257
[6] = tested on: SR
[7] = tested on: SNB-78
[8] = tested on: KM-20L2
[9] = tested on: A498
[10] = tested on: A549
[11] = tested on: CCRF-CEM
[12] = tested on: HL-60
[13] = tested on: NCI-H522
[14] = tested on: SF-268
[15] = tested on: HCT-15
[16] = tested on: SNB-19
[17] = tested on: OVCAR-4
[18] = tested on: M14
[19] = tested on: HT-29
[20] = tested on: NCI-H226
[21] = tested on: SK-MEL-5
[22] = tested on: IGROV-1
[23] = tested on: HOP-92
[24] = tested on: SNB-75
[25] = tested on: SK-OV-3
[26] = tested on: OVCAR-5
[27] = tested on: M19-MEL
[28] = tested on: SF-539
[29] = tested on: SN12C
[30] = tested on: HCT-116
[31] = tested on: SF-295
[32] = tested on: SW-620
[33] = tested on: OVCAR-3
[34] = tested on: LXFL 529
[35] = tested on: U-251
[36] = tested on: MOLT-4
[37] = tested on: 786-0
[38] = tested on: OVCAR-8
[39] = tested on: KM12
[40] = tested on: Malme-3M
[41] = tested on: HOP-18
[42] = tested on: RXF 393
[43] = tested on: UO-31
[44] = tested on: COLO 205
[45] = tested on: HOP-62
[46] = tested on: RPMI-8226
[47] = tested on: K562
[48] = tested on: DLD-1
[49] = tested on: SK-MEL-28
[50] = tested on: LOX IMVI
[51] = tested on: CAKI-1
[52] = tested on: ACHN
[53] = tested on: RXF 631
[54] = tested on: UACC-62
[55] = tested on: EKVX
[56] = tested on: HCC 2998
[57] = tested on: SK-MEL-2
[58] = tested on: XF498
[59] = tested on: DMS-273

## O=C(Nc1ccc(Cl)cc1Cl)c1c/c(=N\O)c2ccc(O)cc2o1
[1]
  GI50: > 100 µM (inactive)
[2]
  GI50: > 100 µM (inactive)
[3]
  GI50: > 100 µM (inactive)
[4]
  GI50: > 100 µM (inactive)
[5]
  GI50: > 100 µM (inactive)
[6]
  GI50: > 100 µM (inactive)
[7]
  GI50: > 100 µM (inactive)
[8]
  GI50: > 100 µM (inactive)
[9]
  GI50: > 100 µM (inactive)
[10]
  GI50: > 100 µM (inactive)
[11]
  GI50: > 100 µM (inactive)
[12]
  GI50: > 100 µM (inactive)
[13]
  GI50: > 100 µM (inactive)
[14]
  GI50: > 100 µM (inactive)
[15]
  GI50: > 100 µM
[16]
  GI50: > 100 µM (inactive)
[17]
  GI50: > 100 µM (inactive)
[18]
  GI50: > 100 µM (inactive)
[19]
  GI50: > 100 µM (inactive)
[20]
  GI50: > 100 µM (inactive)
[21]
  GI50: > 100 µM (inactive)
[22]
  GI50: > 100 µM (inactive)
[23]
  GI50: > 100 µM (inactive)
[24]
  GI50: 30.9 µM (inactive)
[25]
  GI50: > 100 µM (inactive)
[26]
  GI50: > 100 µM (inactive)
[27]
  GI50: > 100 µM (inactive)
[28]
  GI50: > 100 µM (inactive)
[29]
  GI50: > 100 µM (inactive)
[30]
  GI50: > 100 µM (inactive)
[31]
  GI50: > 100 µM (inactive)
[32]
  GI50: > 100 µM (inactive)
[33]
  GI50: > 100 µM (inactive)
[34]
  GI50: > 100 µM (inactive)
[35]
  GI50: > 100 µM (inactive)
[36]
  GI50: > 100 µM (inactive)
[37]
  GI50: > 100 µM (inactive)
[38]
  GI50: > 100 µM (inactive)
[39]
  GI50: > 100 µM (inactive)
[40]
  GI50: > 100 µM (inactive)
[41]
  GI50: > 100 µM (inactive)
[42]
  GI50: > 100 µM (inactive)
[43]
  GI50: > 100 µM (inactive)
[44]
  GI50: > 100 µM (inactive)
[45]
  GI50: > 100 µM (inactive)
[46]
  GI50: > 100 µM (inactive)
[47]
  GI50: > 100 µM (inactive)
[48]
  GI50: > 100 µM (inactive)
[49]
  GI50: > 100 µM (inactive)
[50]
  GI50: > 100 µM (inactive)
[51]
  GI50: > 100 µM (inactive)
[52]
  GI50: > 100 µM (inactive)
[53]
  GI50: > 100 µM (inactive)
[54]
  GI50: > 100 µM (inactive)

## O=C(Cc1ccccc1)NN1C(=O)C(Cl)C1c1ccccc1O (configuration not stated)
[1]
  GI50: 20.4 µM (inactive)
[2]
  GI50: 4.62 µM (inactive)
[3]
  GI50: 45.3 µM (inactive)
[4]
  GI50: 4.46 µM (inactive)
[5]
  GI50: 11.4 µM (inactive)
[6]
  GI50: 3.98 µM (inactive)
[7]
  GI50: 50.7 µM (inactive)
[8]
  GI50: 4.57 µM (inactive)
[10]
  GI50: 21.4 µM (inactive)
[11]
  GI50: 3.17 µM (inactive)
[55]
  GI50: 4.07 µM (inactive)
[12]
  GI50: 3.21 µM (inactive)
[13]
  GI50: 3.27 µM (inactive)
[14]
  GI50: 13.5 µM (inactive)
[56]
  GI50: 20.3 µM (inactive)
[15]
  GI50: 5.85 µM
[16]
  GI50: 16.9 µM (inactive)
[17]
  GI50: 8.81 µM (inactive)
[18]
  GI50: 14.1 µM (inactive)
[19]
  GI50: 8.05 µM (inactive)
[20]
  GI50: 10 µM (inactive)
[22]
  GI50: 25.8 µM (inactive)
[24]
  GI50: 34.8 µM (inactive)
[25]
  GI50: 20.3 µM (inactive)
[26]
  GI50: 15.4 µM (inactive)
[27]
  GI50: 19.3 µM (inactive)
[29]
  GI50: 27.9 µM (inactive)
[30]
  GI50: 5.56 µM (inactive)
[31]
  GI50: 15.4 µM (inactive)
[32]
  GI50: 15.8 µM (inactive)
[57]
  GI50: 17.8 µM (inactive)
[33]
  GI50: 2.64 µM (inactive)
[58]
  GI50: 43.6 µM (inactive)
[34]
  GI50: 24.4 µM (inactive)
[35]
  GI50: 12.8 µM (inactive)
[36]
  GI50: 3.22 µM (inactive)
[59]
  GI50: 20.5 µM (inactive)
[37]
  GI50: 16.8 µM (inactive)
[38]
  GI50: 22.4 µM (inactive)
[40]
  GI50: 19.5 µM (inactive)
[41]
  GI50: 3.82 µM (inactive)
[42]
  GI50: 36 µM (inactive)
[43]
  GI50: 4.54 µM (inactive)
[44]
  GI50: 16.4 µM (inactive)
[45]
  GI50: 12.6 µM (inactive)
[46]
  GI50: 9.84 µM (inactive)
[47]
  GI50: 14.4 µM (inactive)
[48]
  GI50: 9.95 µM (inactive)
[49]
  GI50: 23.5 µM (inactive)
[50]
  GI50: 12.1 µM (inactive)
[51]
  GI50: 40.2 µM (inactive)
[52]
  GI50: 6.98 µM (inactive)
[54]
  GI50: 19.5 µM (inactive)
